The values that follow come from patent US20070142317A1, “Topical composition for treatment of skin disorders” (QLT USA, Inc., priority 2003, published 2007).

One data set deals with dCK (Homo sapiens, UniProt P27707). The note with it: read-out: Km for dCK; cited from earlier work.
The subject of data set [1] is Jurkat cells. The data set is described as follows: Caspase-3 induction by flow cytometry (Example 31). The class given is cell-based. The conditions noted are these: drug 1 μM, PHA-activated cells. As for the experimental part:
(§1) In a search for a topical agent that can locally deplete levels of T-cells in the skin, apoptotic compounds were evaluated for their mechanisms of action. The ability that […] induce apoptosis by the same mechanisms was examined by cytokine secretion. […] Caspase-3 and cytokine (IL-2, IL-6, TNF, and IFN-γ) levels were determined and compared to controls at 23 and 46 hours. FdA was incorporated to evaluate the effect of the halogen group and Ara-C for its overlapping mechanisms of action. […] At the end of the treatment period, the cells were harvested and Caspase-3 induction was determined using a flow-cytometry-based method to quantify the percentage of cells that induced Caspase-3. The level of apoptosis is expressed as “% FITC shift”. Cytokine secretion (IL-2, IL-6, TNF, and IFN-γ) was measured at the same time by ELISA and is expressed in pg/mL. […]

Data set [2] deals with U-937 cells. The data set is described as follows: Caspase-3 induction by flow cytometry (Example 31). The class given is cell-based. The conditions noted are these: drug 1 μM, LPS-activated cells. The protocol: as §1
Data set [3] has as its system U-937 cells. Put plainly: Cytokine secretion by ELISA (Example 31). The class given is cell-based. As for the experimental part: as §1
(ELISA stands for enzyme-linked immunosorbent assay.)

Data set [4] relates to Jurkat cells. The data set is described as follows: Cytokine secretion by ELISA (Example 31). In kind it is cell-based. As for the experimental part:
In a search for a topical agent that can locally deplete levels of T-cells in the skin, apoptotic compounds were evaluated for their mechanisms of action. The ability that […] induce apoptosis by the same mechanisms was examined by cytokine secretion. […] At the end of the treatment period, the cells were harvested and Caspase-3 induction was determined using a flow-cytometry-based method to quantify the percentage of cells that induced Caspase-3. The level of apoptosis is expressed as “% FITC shift”. Cytokine secretion (IL-2, IL-6, TNF, and IFN-γ) was measured at the same time by ELISA and is expressed in pg/mL.

Data set [5] concerns the target T1, ribonucleotide reductase (RNR) (Homo sapiens, UniProt P23921).
T1 sequence (P23921 1-792): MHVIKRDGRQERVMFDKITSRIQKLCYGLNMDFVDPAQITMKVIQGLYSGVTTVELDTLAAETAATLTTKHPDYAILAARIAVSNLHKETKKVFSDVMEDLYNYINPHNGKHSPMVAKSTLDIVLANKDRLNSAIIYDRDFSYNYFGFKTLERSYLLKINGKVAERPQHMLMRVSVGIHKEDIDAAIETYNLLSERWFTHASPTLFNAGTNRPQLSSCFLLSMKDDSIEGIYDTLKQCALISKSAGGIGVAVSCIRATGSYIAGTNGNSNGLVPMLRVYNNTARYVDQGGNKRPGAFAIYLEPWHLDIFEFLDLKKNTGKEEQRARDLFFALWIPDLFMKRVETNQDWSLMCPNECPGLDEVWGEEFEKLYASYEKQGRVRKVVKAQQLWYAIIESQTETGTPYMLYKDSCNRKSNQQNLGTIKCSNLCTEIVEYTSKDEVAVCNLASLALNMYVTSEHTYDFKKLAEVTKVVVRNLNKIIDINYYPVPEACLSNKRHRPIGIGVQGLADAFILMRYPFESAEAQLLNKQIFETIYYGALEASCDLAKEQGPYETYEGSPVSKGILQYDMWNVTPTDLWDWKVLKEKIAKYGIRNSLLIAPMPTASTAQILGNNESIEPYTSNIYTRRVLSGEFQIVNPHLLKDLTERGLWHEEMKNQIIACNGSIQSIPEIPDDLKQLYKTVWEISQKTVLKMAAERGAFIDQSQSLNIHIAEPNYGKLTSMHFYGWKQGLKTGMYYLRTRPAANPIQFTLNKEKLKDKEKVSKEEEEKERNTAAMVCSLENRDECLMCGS
The conditions noted are these: cited from earlier work.

For another data set, the system named is Jurkat T cells. The data set is described as follows: TUNEL apoptosis assay, sequential exposure to dCF then dAd (Example 21). The class given is cell-based. The note with it: Camptothecin 5 uM, positive control. As for the experimental part:
(§2) Thus, it is hypothesized that the sequential exposure of the cells to dCF, followed by deoxyadenosine (dAd) will lead to greater levels of apoptosis than dCF alone. […] The cells were then incubated in dAd for 2 more days. At the end of the treatment period, the cells were harvested for analysis by a TUNEL assay, a flow-cytometry-based method to quantify the percentage of cells that have undergone apoptosis. The level of apoptosis is expressed as “% FITC shift”. As a positive control, the cells were exposed to 5 mM camptothecin for 2 days.

The subject of data set [6] is U937 monocytoid cells. Described as above. In kind it is cell-based. The conditions noted are these: Camptothecin 5 uM, positive control. As for the experimental part:
as §2

The test system of data set [7] is U937 monocytoid cells. The data set is described as follows: TUNEL assay, simultaneous exposure to dCF and dAd (Example 22). The note with it: camptothecin positive control, 2 days (5 mM printed elsewhere in the source). The class given is cell-based. As for the experimental part: Methods Simultaneous Exposure—U937 monocytoid cells were cultured in the presence of 0, 1, 2.5, 10, 20, 50, 100, 150, 200, and 250 μM dAdo for 2 days. […] At the end of the treatment period, the cells were harvested for analysis by a TUNEL assay, a flow-cytometry-based method to quantify the percentage of cells that have undergone apoptosis. The level of apoptosis is expressed as “% FITC shift”. As a positive control, the cells were exposed to 5 mM camptothecin for 2 days.

The test system of data set [8] is U937 monocytoid cells. Put plainly: TUNEL assay, dAd added at different times after dCF wash-out (Example 22). The class given is cell-based. The note with it: 0 μM dCF + camptothecin positive control, time after wash-out 0 hr (5 mM printed elsewhere in the source). The protocol:
At 0, 6, 24, and 48 hours, 50 μM dAd was added and the cells were incubated for an additional 2 days. At the end of the treatment period, the cells were harvested for analysis by a TUNEL assay, a flow-cytometry-based method to quantify the percentage of cells that have undergone apoptosis. The level of apoptosis is expressed as “% FITC shift”. As a positive control, the cells were exposed to 5 mM camptothecin for 2 days.

In data set [9] the test system is U937 monocytoid cells. The data set is described as follows: TUNEL assay, dAd, adenosine and adenine dose ranging (Example 24). The class given is cell-based. The conditions noted are these: Camptothecin 5 uM, positive control, 2 days. As for the experimental part:
U937 monocytoid cells were cultured in the presence of dAd at various concentrations of dAd (0, 50, 75, 100, 250 and 1000 micromoles/liter). The cells were incubated in dAd for 2 days. At the end of the treatment period, the cells were harvested for analysis by a TUNEL assay, a flow-cytometry-based method to quantify the percentage of cells that have undergone apoptosis. The level of apoptosis expressed as “% FITC shift”. The level of cell cycle arrest is expressed as “% PI shift”. As a positive control, the cells were exposed to 5 mM camptothecin for 2 days.

Data set [10] concerns U937 monocytoid cells. The data set is described as follows: TUNEL assay, dAd added at different times after dCF wash-out (Example 22). The conditions noted are these: 0 μM dCF + camptothecin positive control, time after wash-out 0 hr (5 mM printed elsewhere in the source). The class given is cell-based. The source holds these as a separate data set.
Source text in data set [11]: (§3) Systemic absorption is a concern, because of the potential for serious adverse events, such as lymphopenia and renal toxicity. At oncology doses, these adverse reactions are usually minimized, but the therapeutic index is narrow. Another factor that plays a role in the safety of the formulation is the amount of product administered each day. Approximately 4 grams, 12 grams, and 40 grams of a topical formulation are estimated to cover 10%, 30%, and 100% of the body surface area.
as §3
as §3, with “Calculations of safety margins have been performed, based upon this assumption and the known toxicity profile of F-Ara-A when administered IV for oncology indications. Systemic” for “Systemic”
as §3

For data set [12] the following is noted: aqueous solution, cited from earlier work.
The conditions of data set [13]: intravenous; cited from earlier work.
For a further data set, the system named is lymphocytes. The note with it: same concentration of dCF, absence of dAdo, after 4 days of exposure; cited from earlier work.
In data set [14] the test system is hairy cell leukemia (HCL). The note with it: 4 mg/m^2 every 14 days; cited from earlier work.
A short description of data set [15]: Calculated concentration in the skin assuming 7% penetration.
For a further data set, the target named is ADA (Homo sapiens, UniProt P00813). The note with it: cited from earlier work.
Chain of ADA (P00813 whole entry, species assumed): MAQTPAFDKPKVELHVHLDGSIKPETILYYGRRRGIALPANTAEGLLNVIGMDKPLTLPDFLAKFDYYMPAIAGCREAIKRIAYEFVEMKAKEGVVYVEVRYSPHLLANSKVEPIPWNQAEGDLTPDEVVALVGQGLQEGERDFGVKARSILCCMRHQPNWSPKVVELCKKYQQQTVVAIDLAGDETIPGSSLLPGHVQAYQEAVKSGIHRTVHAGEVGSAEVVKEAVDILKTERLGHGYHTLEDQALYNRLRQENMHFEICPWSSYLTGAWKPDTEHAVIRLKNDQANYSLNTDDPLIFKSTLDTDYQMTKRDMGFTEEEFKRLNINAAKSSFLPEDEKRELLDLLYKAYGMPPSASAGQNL
For data set [16] the following is noted: systemic, deamination by CDA; cited from earlier work.
The mark [17] stands for this setting: 23 hr, drug 5 μM, positive control.
Setting [18] is: 46 hr, drug 5 μM, positive control.

“And” between values parts separate entries of the source, which are not always exact repeats. Equal values may be shown once. Read-outs that look alike come from different tables or passages of the source.

Chain of dCK (P27707 whole entry, species assumed): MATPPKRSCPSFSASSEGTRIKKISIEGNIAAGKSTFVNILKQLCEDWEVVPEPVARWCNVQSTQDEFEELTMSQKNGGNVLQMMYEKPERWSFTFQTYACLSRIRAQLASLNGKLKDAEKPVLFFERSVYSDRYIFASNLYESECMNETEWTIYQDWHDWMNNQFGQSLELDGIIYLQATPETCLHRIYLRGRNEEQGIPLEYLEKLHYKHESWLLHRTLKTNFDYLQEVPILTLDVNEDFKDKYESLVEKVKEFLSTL

By Km is commonly meant the substrate concentration at which the rate is half of its maximum. With `Nc1nc(Cl)nc2c1ncn2[C@@H]1O[C@H](CO)[C@@H](O)[C@@H]1F` [Clofarabine], the Michaelis-Menten constant (Km) on dCK is 5 µM.
As for `Nc1nc(F)nc2c1ncn2[C@H]1C[C@H](O)[C@@H](CO)O1` [FdA, 2-fluoro-2′-deoxyadenosine], the “Caspase-3 Induction % FITC Shift - Mean of 3 Replicates” value in the data set with Jurkat cells [1] (23 hr) came to 75%; in the data set with Jurkat cells [1] (46 hr), 95%; with U-937 cells [2] (23 hr), 67%; with U-937 cells [2] (46 hr) it was 51%. Moreover, the “Cytokine Secretion IL-6 pg/ml Mean of 3 Replicates” value in the data set on U-937 cells [3] (23 hr, drug 1 μM, LPS-activated cells) is 7 pg/mL; in the data set with U-937 cells [3] (46 hr, drug 1 μM, LPS-activated cells), 7 pg/mL and 8 pg/mL. In addition, the “effect on suppressing the production of IL-6” value with U-937 cells [3] (46 hours, drug 1 μM) is “little effect”. Besides, the “Cytokine Secretion IL-2 pg/ml Mean of 3 Replicates” value in the data set on Jurkat cells [4] (23 hr, drug 1 μM, PHA-activated cells) came out at 41 pg/mL; with Jurkat cells [4] (46 hr, drug 1 μM, PHA-activated cells), 72 pg/mL. Further, the IL-2 concentration with Jurkat cells [4] (Jurkat cells activated by PHA, 46 hours, drug 1 μM) was found to be 72 pg/mL.
One may read the IC50 as the concentration at which inhibition is half-maximal. Turning to `Nc1nc(Cl)nc2c1ncn2[C@H]1C[C@H](O)[C@@H](COP(=O)(O)OP(=O)(O)OP(=O)(O)O)O1` [CdATP, 2-chloro-2′-deoxyadenosine-5′-triphosphate], the IC50 in data set [5] is 0.06 µM.
With `Nc1nc(F)nc2c1ncn2C1OC(COP(=O)(O)OP(=O)(O)OP(=O)(O)O)C(O)C1O` (stereo not drawn) [F-Ara-ATP], the concentration for half-maximal inhibition (IC50) in data set [5] was around 0.6 µM.
For the compound `CC[C@@]1(O)C(=O)OCc2c1cc1n(c2=O)Cc2cc3ccccc3nc2-1` [Camptothecin], the “% FITC Shift” value is 80.2% in the data set with Jurkat T cells; 93.4% with U937 monocytoid cells [6]; 79.5% with U937 monocytoid cells [7]; 84.3% with U937 monocytoid cells [8]; 72.8% in the data set with U937 monocytoid cells [9]. Further, the “% PI Shift” value in the data set with U937 monocytoid cells [7] worked out at 43.4%; with U937 monocytoid cells [9], 32.2%; in the data set on U937 monocytoid cells [10], 29.2%. Besides, the “Cytokine Secretion IL-6 pg/ml Mean of 3 Replicates” value with U-937 cells [3] (setting [17]) and in the data set on U-937 cells [3] (setting [18]) was 0 pg/mL throughout. Moreover, the “Cytokine Secretion IL-2 pg/ml Mean of 3 Replicates” value in the data set with Jurkat cells [4] (setting [17]) and with Jurkat cells [4] (setting [18]) was 0 pg/mL throughout.
Turning to `OC[C@H]1O[C@@H](n2cnc3c2NC=NC[C@H]3O)C[C@@H]1O` [dCF, (R)-3-(2-Deoxy-β-D-erythro-pentofuranosyl)-3,6,7,8-tetrahydroimidazo[4,5-d][1,3]diazepin-8-ol], the “safety margin (times safer than the oncology dose)” value in data set [11] amounted to 1.8. Also, the t50 in data set [12] (pH 1, 25° C.) is 5.6 min; in data set [12] (pH 5.0, 25° C.), “about 3.5 days”; in data set [12] (pH 7.5, 25° C.) it was “approximately 70 days”; in [12] (pH 12.6, 25° C.) it was “approximately 45 days”. For the same compound, in data set [13], the “drug recovered in the urine” value is given as “Approximately 96%”. For the same compound, the growth inhibition in the data set with lymphocytes is reported as 0-10%. The “time to complete remissions, on average” value in data set [14] was 6 months. Also, the “Concentration in the skin assuming 7% penetration” value in data set [15] (topical concentration 0.00001%) was 0.03 µM; in data set [15] (topical concentration 0.00005%), 0.13 µM; in data set [15] (topical concentration 0.0001%), 0.26 µM; in [15] (topical concentration 0.001%), 2.61 µM; in data set [15] (topical concentration 0.01%), 26.09 µM; in [15] (topical concentration 0.1%) it was 260.93 µM.
Regarding `Nc1ccn(C2OC(COP(=O)(O)OP(=O)(O)O)C(O)C2(F)F)c(=O)n1` (stereo not drawn) [gemcitabine diphosphate], in data set [5], the half-inhibitory concentration (IC50) is 0.2 µM.
In the case of `COc1nc(N)nc2c1ncn2[C@@H]1O[C@H](CO)[C@@H](O)[C@@H]1O` [Nelarabine], at ADA, the “Km to ADA relative to that of adenosine” value is “less than 1%”.
By half-life is commonly meant the time in which the quantity being followed falls by half. On to `Nc1ccn([C@@H]2O[C@H](CO)[C@@H](O)C2(F)F)c(=O)n1` [Gemcitabine], for which the half-life in [16] is 10 to 20 min.
